Results published in US7173004B2, “Macrocyclic isoquinoline peptide inhibitors of hepatitis C virus” (Bristol-Myers Squibb Company, priority 2003, dated 2007).

System: HCV replicon (HCV 1b-377-neo replicon cells, Huh7)
Experiment: HCV replicon cell-based FRET assay
Conditions: Hepatitis C virus, Huh-7
How it was run: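 Huh7 cells carrying a neo-selectable genotype 1b HCV replicon (~3,000 RNA copies/cell) were seeded at 1.5×10^4 cells/well and treated 4 days at 37 °C (0.5% DMSO final). CC50 was read by alamar Blue (4 h, ex 530/em 580 nm). Lysates with 10 μM EDANS/DABCYL NS3 protease FRET peptide were read kinetically (ex 340/em 490 nm, 25 °C, ~15 min) for % inhibition.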

| Structure (SMILES) | EC50 [nM] |
| --- | --- |
| COc1ccc2c(OC3CC4C(=O)NC5(C(=O)NS(=O)(=O)C6(C)CC6)CC5C=CCCCSCC(NC(=O)OC(C)(C)C)C(=O)N4C3)nccc2c1 (stereo not shown) [Compound 115] | < 50 |
| CC(C)(C)OC(=O)N[C@H]1CN(S(=O)(=O)c2ccccc2[N+](=O)[O-])CCC/C=C\[C@@H]2C[C@@]2(C(=O)NS(=O)(=O)C2CC2)NC(=O)[C@@H]2C[C@@H](Oc3nccc4ccccc34)CN2C1=O [Compound 145] | 50 to 500 |
| COc1ccc2c(O[C@@H]3C[C@H]4C(=O)N[C@]5(C(=O)NS(=O)(=O)C6CC6)C[C@H]5/C=C\COCC[C@H](NC(=O)OC(C)(C)C)C(=O)N4C3)nccc2c1 [Compound 141, [(Z)-(1S,4R,13S,17R)-4-cyclopropanesulfonylaminocarbonyl-17-(6-methoxy-isoquinolin-1-yloxy)-2,14-dioxo-10-oxa-3,15-diaza-tricyclo[13.3.0.0^4,6]octadec-7-en-13-yl]-carbamic acid tert-butyl ester] | 500 to 5000 |
| CNc1ccc(-c2cc3cc(OC)ccc3c(OC3CC4C(=O)NC5(C(=O)NS(=O)(=O)C6CC6)CC5C=CCOCCCC(NC(=O)OC(C)(C)C)C(=O)N4C3)n2)cc1 (stereo not shown) [Compound 113] | < 50 |
| COc1ccc2c(OC3CC4C(=O)NC5(C(=O)NS(=O)(=O)C6CC6)CC5C=CCOCCCC(NC(=O)NC(C)(C)C)C(=O)N4C3)nc(-c3ccccc3)cc2c1 (stereo not shown) [Compound 102] | < 50 |
| COc1ccc2c(OC3CC4C(=O)NC5(C(=O)NS(=O)(=O)C6CC6)CC5C=CCCCOCC(NC(=O)NC5CCCC5)C(=O)N4C3)nccc2c1 (stereo not shown) [Compound 87] | < 50 |
| COc1ccc2c(OC3CC4C(=O)NC5(C(=O)NS(=O)(=O)C6CC6)CC5C=CCCCOCC(NC(=O)OCC(C)(C)C)C(=O)N4C3)nccc2c1 (stereo not shown) [Compound 88] | < 50 |
| CC(C)(C)NC(=O)N1CCC/C=C\[C@@H]2C[C@@]2(C(=O)NS(=O)(=O)C2CC2)NC(=O)[C@@H]2C[C@@H](Oc3nccc4ccccc34)CN2C(=O)[C@@H](NC(=O)OC(C)(C)C)C1 [Compound 150] | 50 to 500 |
| COc1ccc2c(OC3CC4C(=O)NC5(C(=O)NS(=O)(=O)C6CC6)CC5C=CCCCOCC(NC(=O)NC(C)(C)C)C(=O)N4C3)nccc2c1 (stereo not shown) [Compound 86] | < 50 |
| COc1ccc2c(OC3CC4C(=O)NC5(C(=O)NS(=O)(=O)C6CC6)CC5C=CCCCOCC(NC(=O)N5CCCC5)C(=O)N4C3)nc(-c3ccc(N(C)C)cc3)cc2c1 (stereo not shown) [Compound 111] | < 50 |
| CCC(C)(C)OC(=O)NC1CCCCCC=CC2CC2(C(=O)NS(=O)(=O)C2CC2)NC(=O)C2CC(Oc3nccc4ccccc34)CN2C1=O (stereo not shown) [Compound 125] | < 50 |
| CCSC(=O)NC1CCCCCC=CC2CC2(C(=O)NS(=O)(=O)C2CC2)NC(=O)C2CC(Oc3nccc4ccccc34)CN2C1=O (stereo not shown) [Compound 118] | < 50 |
| COc1ccc2c(OC3CC4C(=O)NC5(C(=O)NS(=O)(=O)C6CC6)CC5C=CCCCCCC(NC(=O)NC5CCCC5)C(=O)N4C3)nccc2c1 (stereo not shown) [Compound 136] | < 50 |
| CC(=O)C(C)(C)OC(=O)NC1CCCCCC=CC2CC2(C(=O)NS(=O)(=O)C2CC2)NC(=O)C2CC(Oc3nccc4ccccc34)CN2C1=O (stereo not shown) [Compound 123] | 50 to 500 |
| COc1ccc2c(OC3CC4C(=O)NC5(C(=O)NS(=O)(=O)C6CC6)CC5C=CCCCSCC(N)C(=O)N4C3)nccc2c1 (stereo not shown) [Compound 117] | 50 to 500 |
| CC(C)(C)COC(=O)N1CCCC=CC2CC2(C(=O)NS(=O)(=O)C2CC2)NC(=O)C2CC(Oc3nccc4ccccc34)CN2C(=O)C(NC(=O)OC(C)(C)C)C1 (stereo not shown) [Compound 149] | 50 to 500 |
| CC(C)(C)NC(=O)N[C@H]1CCCCC/C=C\[C@@H]2C[C@@]2(C(=O)NS(=O)(=O)C2CC2)NC(=O)[C@@H]2C[C@@H](Oc3nccc4ccccc34)CN2C1=O [Compound 126] | < 50 |
| CC(C)(C)OC(=O)NC1CN(C(=O)C2CC2)CCCC=CC2CC2(C(=O)NS(=O)(=O)C2CC2)NC(=O)C2CC(Oc3nccc4ccccc34)CN2C1=O (stereo not shown) [Compound 152] | 50 to 500 |
| COc1ccc2c(OC3CC4C(=O)NC5(C(=O)NS(=O)(=O)C6CC6)CC5C=CCCCOCC(NC(=O)NC(C)(C)C)C(=O)N4C3)nc(-c3ccccc3)cc2c1 (stereo not shown) [Compound 92] | < 50 |

| Structure (SMILES) | EC50 [nM] |
| --- | --- |
| COc1ccc2c(OC3CC4C(=O)NC5(C(=O)NS(=O)(=O)C6CC6)CC5C=CCOCCCC(NC(=O)N5CCNC5=O)C(=O)N4C3)nc(-c3ccccc3)cc2c1 (stereo not shown) [Compound 106] | 500 to 5000 |
| COc1ccc2c(OC3CC4C(=O)NC5(C(=O)NS(=O)(=O)C6CC6)CC5C=CCOCCCC(NC(=O)OCC(C)(C)C)C(=O)N4C3)nc(-c3ccccc3)cc2c1 (stereo not shown) [Compound 103] | < 50 |
| COc1ccc2c(OC3CC4C(=O)NC5(C(=O)NS(=O)(=O)C6CC6)CC5C=CCCCOCC(NC(=O)OC5CCCC5)C(=O)N4C3)nc(-c3ccc(N(C)C)cc3)cc2c1 (stereo not shown) [Compound 110] | < 50 |
| CC(=O)N1CCC/C=C\[C@@H]2C[C@@]2(C(=O)NS(=O)(=O)C2CC2)NC(=O)[C@@H]2C[C@@H](Oc3nccc4ccccc34)CN2C(=O)[C@@H](NC(=O)OC(C)(C)C)C1 [Compound 146] | 500 to 5000 |
| COc1ccc2c(OC3CC4C(=O)NC5(C(=O)NS(=O)(=O)C6CC6)CC5C=CCCCCCC(NC(=O)OC(C)(C)C)C(=O)N4C3)nccc2c1F (stereo not shown) [Compound 132] | < 50 |
| COc1ccc2c(O[C@@H]3C[C@H]4C(=O)N[C@]5(C(=O)NS(=O)(=O)C6CC6)C[C@H]5/C=C\CCCSC(C)(C)[C@H](NC(=O)OC(C)(C)C)C(=O)N4C3)nccc2c1 [Compound 80, (1S,4R,6S,14R,18R)-[7-cis-4-Cyclopropanesulfonylaminocarbonyl-13,13-dimethyl-18-(6-methoxyisoquinolin-1-yloxy)-2,15-dioxo-12-thia-3,16-diaza-tricyclo[14.3.0.0^4,6]nonadec-7-en-14-yl]carbamic acid, tert-butyl ester] | 50 to 500 |
| COc1ccc2c(OC3CC4C(=O)NC5(C(=O)NS(=O)(=O)C6CC6)CC5C=CCCCOCC(NC(=O)OC5CCCC5)C(=O)N4C3)nc(-c3ccccc3)cc2c1 (stereo not shown) [Compound 94] | < 50 |
| COc1ccc2c(OC3CC4C(=O)NC5(C(=O)NS(=O)(=O)C6CC6)CC5C=CCOCCCC(NC(=S)NC5CC5)C(=O)N4C3)nc(-c3ccccc3)cc2c1 (stereo not shown) [Compound 104] | 50 to 500 |
| CC(C)NC(=O)NC1CCCCCC=CC2CC2(C(=O)NS(=O)(=O)C2CC2)NC(=O)C2CC(Oc3nccc4ccccc34)CN2C1=O (stereo not shown) [Compound 128] | < 50 |
| COc1ccc2c(OC3CC4C(=O)NC5(C(=O)NS(=O)(=O)C6CC6)CC5C=CCOCCCC(NC(=O)OC(C)C)C(=O)N4C3)nc(-c3ccccc3)cc2c1 (stereo not shown) [Compound 98] | < 50 |
| CC(C)(C)OC(=O)NC1CCCCCC=CC2CC2(C(=O)NS(=O)(=O)C2CC2)NC(=O)C2CC(Oc3nccc4c(Cl)cccc34)CN2C1=O (stereo not shown) [Compound 130] | < 50 |
| COc1ccc2c(O[C@@H]3C[C@H]4C(=O)N[C@]5(C(=O)NS(=O)(=O)C6CC6)C[C@H]5/C=C\CCCOC[C@H](NC(=O)OC(C)(C)C)C(=O)N4C3)nccc2c1 [Compound 85, (1S,4R,6S,14S,18R)-[7-cis-4-Cyclopropanesulfonylaminocarbonyl-18-(6-methoxy-isoquinolin-1-yloxy)-2,15-dioxo-12-oxa-3,16-diaza-tricyclo[14.3.0.0^4,6]nonadec-7-en-14-yl]-carbamic acid, tert-butyl ester] | < 50 |
| CC(C)(OC(=O)NC1CCCCCC=CC2CC2(C(=O)NS(=O)(=O)C2CC2)NC(=O)C2CC(Oc3nccc4ccccc34)CN2C1=O)C(Cl)(Cl)Cl (stereo not shown) [Compound 124] | < 50 |
| CC(C)(C)OC(=O)N[C@H]1CNCCC/C=C\[C@@H]2C[C@@]2(C(=O)NS(=O)(=O)C2CC2)NC(=O)[C@@H]2C[C@@H](Oc3nccc4ccccc34)CN2C1=O [Compound 151] | 50 to 500 |
| CC1(COC(=O)NC2CCCCCC=CC3CC3(C(=O)NS(=O)(=O)C3CC3)NC(=O)C3CC(Oc4nccc5ccccc45)CN3C2=O)CC1 (stereo not shown) [Compound 122] | < 50 |
| COC(=O)N1CCC/C=C\[C@@H]2C[C@@]2(C(=O)NS(=O)(=O)C2CC2)NC(=O)[C@@H]2C[C@@H](Oc3nccc4ccccc34)CN2C(=O)[C@@H](NC(=O)OC(C)(C)C)C1 [Compound 148] | 50 to 500 |
| COc1ccc2c(OC3CC4C(=O)NC5(C(=O)NS(=O)(=O)C6CC6)CC5C=CCCCOCC(NC(=O)OCC(C)(C)C)C(=O)N4C3)nc(-c3ccccc3)cc2c1 (stereo not shown) [Compound 95] | < 50 |
| COc1cccc2c(OC3CC4C(=O)NC5(C(=O)NS(=O)(=O)C6CC6)CC5C=CCCCCCC(NC(=O)OC(C)(C)C)C(=O)N4C3)nccc12 (stereo not shown) [Compound 133] | < 50 |
